Earlier results, collected in patent US20240093135A1, “BASE ELEMENT OF A MULTI-CHAMBER BIOCHIP, PRODUCTION OF THE MULTI-CHAMBER BIOCHIP, AND USE THEREOF FOR ESTABLISHING ORGAN AND DISEASE MODELS AND SUBSTANCE TESTS” (Dynamic42 GmbH, priority 2022, published 2024).

Conditions: PDMS chips, after 24 hours

Compound: CCCC1COC(Cn2cncn2)(c2ccc(Cl)cc2Cl)O1 (stereo not shown) [propiconazole]
- detectable share of the starting concentration in the culture medium: less than 30%
